Data reported in patent US20030004157A1, “Use of NK-1 receptor antagonists against benign prostatic hyperplasia” (priority 2001, published 2003).

Test system: Beagle dogs
Assay: 39-week toxicity study in the dog
Assay type: in vivo
Conditions: 39 weeks; for PROSTATE diff. % vs. control (relative organ weight) / PROSTATE per 100 g BW relative (mean relative organ weight) / TESTES diff. % vs. control (relative organ weight) / TESTES per 100 g BW relative (mean relative organ weight) / PROSTATE absolute (mean absolute organ weight) / TESTES absolute (mean absolute organ weight): male Beagle dogs, oral gavage, SEDDS formulation; for PROSTATE absolute (mean absolute organ weight) / TESTES absolute (mean absolute organ weight): in g (unit assumed); for reduced weights of the prostate gland compared to the control / microscopic changes of the prostate (animals affected): males
Method: In a nine-month study four groups of Beagle dogs (4 animals/gender/group; 5-6 months of age at study start) received oral doses (gavage) of 0 (placebo), 6, 20 and 60 mg/kg/d of 2-(3,5-bis-trifluoromethyl-phenyl)-N-methyl-N-(6-morpholin-4-yl-4-o-tolyl-pyridin-3-yl)-isobutyramide as a SEDDS formulation for 39 weeks. The following variables were investigated: clinical signs, body weights, food consumption, ophthalmoscopy before and at the end of the study, electrocardiography, heart rate, toxicokinetics at different time-points, clinical pathology (hematology, biochemistry, urinalysis) in 3-months intervals, necropsy and tissue preservation, organ weights and histopathology.
Mean absolute organ weights were adjusted to 100 g of the mean terminal body weights=>mean relative organ weights.
Mean relative organ weights were compared to the corresponding control=>% deviation.

## Cc1ccccc1-c1cc(N2CCOCC2)ncc1N(C)C(=O)C(C)(C)c1cc(C(F)(F)F)cc(C(F)(F)F)c1 [2-(3,5-bis-trifluoromethyl-phenyl)-N-methyl-N-(6-morpholin-4-yl-4-o-tolyl-pyridin-3-yl)-isobutyramide]
6, 20 and 60 mg/kg/d oral
  abnormalities in organ systems other than prostate: no overt abnormalities in any other organ system
  liver changes: Mild changes in the liver (hepatocyte hypertrophy with slightly increased organ weights)
6 mg/kg/d
  PROSTATE diff. % vs. control (relative organ weight): −24%
  PROSTATE per 100 g BW relative (mean relative organ weight): 0.059
  TESTES diff. % vs. control (relative organ weight): +1%
  TESTES per 100 g BW relative (mean relative organ weight): 0.1803
  PROSTATE absolute (mean absolute organ weight): 8.066
  TESTES absolute (mean absolute organ weight): 24.577
20 mg/kg/d
  PROSTATE diff. % vs. control (relative organ weight): −37%
  PROSTATE per 100 g BW relative (mean relative organ weight): 0.049
  TESTES diff. % vs. control (relative organ weight): +6%
  TESTES per 100 g BW relative (mean relative organ weight): 0.1804
  PROSTATE absolute (mean absolute organ weight): 6.413
  TESTES absolute (mean absolute organ weight): 23.432
60 mg/kg/d
  PROSTATE diff. % vs. control (relative organ weight): −58%
  PROSTATE per 100 g BW relative (mean relative organ weight): 0.033
  TESTES diff. % vs. control (relative organ weight): +9%
  TESTES per 100 g BW relative (mean relative organ weight): 0.1853
  PROSTATE absolute (mean absolute organ weight): 4.429
  TESTES absolute (mean absolute organ weight): 24.753
6 mg/kg/d oral
  reduced weights of the prostate gland compared to the control: insignificant trend
20 mg/kg/d oral
  microscopic changes of the prostate (animals affected): most
  reduced weights of the prostate gland compared to the control: 37%
60 mg/kg/d oral
  microscopic changes of the prostate (animals affected): all males
  reduced weights of the prostate gland compared to the control: 58%
